Experimental data published in US20050277696A1, “Novel use of cytotoxic drugs for treatment and prophylasxis of aging diseases by reversing the loss of elasticity of epithelial cells due to aging” (priority 2004, published 2005).

Tested on: human epithelial cells
Test: clonal growth of human epithelial cells in cell culture over 7 days (surviving colonies counted)
Type: cell-based
From the text: Therefore, before the comparison of results based on rigidity of older cells against younger and more elastic cells, the proper concentration of the drug must be found. Dissolved in an appropriate solvent (for example, dimethylsulfoxide for Cytochalasin D, B and Latrunculin A, B, Jasplakinolide), the drug should be added to the cell culture medium. […] The amount of the drug should not be in such a high concentration that would result in the destruction of the cells. As an example, when the treatment of the old cells is done with Cytochalasin B, a cell permeable fungal toxin which binds to the barbed end of actin filaments and results in the inhibition of both the association and dissociation of its subunits, a 4 μg/mL solution of Cytochalasin B in the medium was optimal to treat viable cells for 12 hours. This concentration was determined by performing experiments to measure clonal growth of human epithelial cells in cell culture over 7 days in different concentrations of the drug. The number of surviving colonies of cells was counted to determine the range of concentrations that were non-toxic or non-cytostatic. This range was from 1.0 to 10 μg/mL. The determination of the appropriate concentration of a cytotoxic drug is dependent upon the particular drug of choice, but one skilled in the art would recognize methods to determine the appropriate drug concentration.

## C=C1[C@@H](C)[C@H]2[C@H](Cc3ccccc3)NC(=O)[C@]23OC(=O)/C=C/[C@H](O)CCC[C@@H](C)C/C=C/[C@H]3[C@@H]1O [Cytochalasin B]
Clonal growth over 7 days in different concentrations of the drug, number of surviving colonies counted
  range of concentrations that were non-toxic or non-cytostatic: 1.0 to 10 µg/mL
Old cells, treatment for 12 hours, solution in the medium
  optimal concentration in the medium to treat viable cells: 4 µg/mL
